Measurements reported in patent US20120316144A1, “ANTIFUNGAL AGENT” (priority 2010, published 2012).

What was measured:
Malassezia [1] = experiment: Antifungal (Malassezia) paper disk test of fractionated ingredients of mastic normal-hexane extract with squalene; type: cell-based; details: for anti-Malassezia activity (in words): combination with squalene, summary of Table 4; for diameter of antiproliferative circle, First time / diameter of antiproliferative circle, Second time / diameter of antiproliferative circle, Average: Malassezia, Mueller-Hinton media, fraction 5 mg/disk + squalene 25 mg/disk; for diameter of antiproliferative circle, Average: average of two runs
Description: The fractions fractionated in the first example were respectively dissolved in acetone. Paper disks for antibiotic assay which are the same as the paper disks for antibiotic assay used in the third example were impregnated with the obtained respective fraction solutions of 5 mg/disk. Moreover, squalene was added to each of the paper disks for antibiotic assay by 25 mg/disk, to prepare disks to be tested. Then, the respective disks to be tested were vacuum-dried to eliminate the acetone. Further, the Malassezia prepared to be approximately 10^6 CFU/ml was applied to the Mueller-Hinton media. Next, the respective disks to be tested were placed on the Mueller-Hinton media, and cultured for two days under an aerobic condition at 37° C. Then, the diameters (mm) of antiproliferative circles formed around the respective disks to be tested were measured.

Malassezia [2] = experiment: Antifungal (Malassezia) paper disk test of mastic normal-hexane extract and squalene; type: cell-based; details: Mueller-Hinton media, squalene 25 mg/disk alone
Description: Mastic normal-hexane extract (MH) was dissolved in acetone. Then, paper disks for antibiotic assay which are the same as the paper disks for antibiotic assay used in the third example were impregnated with the obtained MH solution, to prepare a disk to be tested impregnated with the MH solution of 5 mg/disk, a disk to be tested impregnated with the MH solution of 10 mg/disk, and a disk to be tested impregnated with the MH solution of 20 mg/disk. These disks to be tested were prepared two each, respectively. Further, the S solution, which was obtained by dissolving squalene (S) in acetone, was added to each of some disks to be tested prepared in this way by 25 mg/disk, to prepare disks of mixture of the mastic normal-hexane extract and squalene (MH+S) as well. Further, as standard controls, paper disks for antibiotic assay which are the same as the paper disks for antibiotic assay used in the third example were impregnated with the S solution of 25 mg/disk, to prepare a disk to be tested. Then, the respective disks to be tested were vacuum-dried to eliminate the acetone. Further, the Malassezia prepared to be approximately 10^6 CFU/ml was applied to the Mueller-Hinton media. […] Then, the diameters (mm) of antiproliferative circles formed around the respective disks to be tested were measured.

| Compound | anti-Malassezia activity (in words) (Malassezia [1]) | diameter of antiproliferative circle, First time (Malassezia [1]) [mm] | diameter of antiproliferative circle, Second time (Malassezia [1]) [mm] | diameter of antiproliferative circle, Average (Malassezia [1]) [mm] | Antiproliferative Circles (mm) (Malassezia [2]) |
| --- | --- | --- | --- | --- | --- |
| CC(C)=CCC[C@H](C)[C@@H]1CC[C@]2(C)C3=C(CC[C@@]12C)[C@@]1(C)CC[C@H](O)C(C)(C)[C@@H]1CC3 [Fr. 5-1, Tirucallol] | potent anti-Malassezia activity | – | – | – | – |
| CC1(C)CCC2(O)CC[C@]3(C)C(=CC[C@@H]4[C@@]5(C)CCC(=O)C(C)(C)[C@@H]5CC[C@]43C)C2C1 (stereo partly shown) [Fr. 6, 3-oxo-17-hydroxy-norolean-12-ene] | potent anti-Malassezia activity | 21 | 19 | 20 | – |
| CC1(C)CC[C@]2(C)CC[C@]3(C)C(=CC[C@@H]4[C@@]5(C)CC[C@H](O)C(C)(C)[C@@H]5CC[C@]43C)C2C1 (stereo partly drawn) [Fr. 5-2, β-amylin] | potent anti-Malassezia activity | – | – | – | – |
| CC1(C)CC[C@]2(C=O)CC[C@]3(C)C(=CC[C@@H]4[C@@]5(C)CCC(=O)C(C)(C)[C@@H]5CC[C@]43C)C2C1 (stereo partly shown) [Fr. 3, olean-12-en-3,28-dione] | potent anti-Malassezia activity | 25 | 25 | 25 | – |
| CC(C)=CCC[C@](C)(O)[C@H]1CC[C@]2(C)C1CCC1[C@@]3(C)CCC(=O)C(C)(C)[C@@H]3CC[C@]12C (stereo partly shown) [Fr. 8, 3-oxo-20-hydroxy-dammar-24-ene] | potent anti-Malassezia activity | 25 | 24 | 24.5 | – |
| CC1(C)C=C2C(=CC[C@]3(C)C2CC[C@@H]2[C@@]4(C)CCC(=O)C(C)(C)[C@@H]4CC[C@]23C)CC1 (stereo partly shown) [Fr. 1, 3-oxo-28-norolean-16,18-diene] | potent anti-Malassezia activity | 25 | 22 | 23.5 | – |
| CC(C)=CCC/C(C)=C/CC/C(C)=C/CC/C=C(\C)CC/C=C(\C)CCC=C(C)C [S, squalene] | – | – | – | – | 11 |
